Measured values as given in patent US20210130401A1, “PEPTIDOMIMETIC INHIBITORS OF THE WDR5-MLL INTERACTION” (THE REGENTS OF THE UNIVERSITY OF MICHIGAN, priority 2017, published 2021).
pIC50: −log10 of the molar value. Read-outs that look alike come from different tables or passages of the source. Starred links: 1 amine or outer side, 2 acyl side, 3 side chain; linkers in the order of their positions; H or OH if unused. Positions of bridges follow the written chain, without caps; N, C: chain ends. Non-standard residues stand in square brackets, D forms with d. Residues, ends and D or L forms follow the SMILES beside them. ξ: configuration not given here. *: point of attachment. Arg(NO2) = N=C(NCCC[C@H](N)C(=O)O)N[N+](=O)[O-]; dαMeDab = C[C@](CCN[*:3])(N[*:1])C(=O)[*:2]; dPhg(2-OMe) = COc1ccccc1[C@@H](N)C(=O)O; Arg(Me2s) = CN=C(NC)NCCC[C@H](N)C(=O)O; dPhe(3-F) = N[C@H](Cc1cccc(F)c1)C(=O)O; dGly(cPent) = N[C@@H](C(=O)O)C1CCCC1; dCha = N[C@H](CC1CCCCC1)C(=O)O; dPhg = N[C@@H](C(=O)O)c1ccccc1; ξhhPhe = NC(CCCc1ccccc1)C(=O)O; ξhPhe = NC(CCc1ccccc1)C(=O)O; Imidazol2yl = c1c[nH]c(*)n1; 2Pyrimidinyl = c1cnc(*)nc1; Isobutyryl = CC(C)C(=O)*; Orn = NCCC[C@H](N)C(=O)O; Ac5c = NC1(C(=O)O)CCCC1; Dab = NCC[C@H](N)C(=O)O; Abu = CC[C@H](N)C(=O)O; Acryloyl = C=CC(=O)*

Test system: MOLM-13 leukemia cells carrying MLL-AF9 fusion
Test: cell viability assay (WST-8), MOLM-13
Type: cell-based
Conditions: Homo sapiens, MOLM-13, 96 h; for IC50: read-out: MOLM-13 IC50 (μM); for pIC50: Table 2A, 4 days treatment, read-out: MOLM-13 IC50
Method: To assess cell viability, MOLM-13 leukemia cells carrying MLL-AF9 fusion, MV4;11 leukemia cells carrying MLL-AF4 fusion or HL-60 leukemia cells carrying no MLL fusion were seeded 1×10^4 cell/well in 96-well plates and treated with an inhibitor for 4 days at different concentrations, in culture media containing 0.2% DMSO as the final concentration. Cell viability was determined using the WST-8 cell proliferation assay kit (Dojindo Molecular Technologies) according to manufacturer's instructions. Three independent experiments in triplicates were performed.

With `CC[C@@H]1NC(=O)[C@H](CCCNC(=N)N)NC(=O)[C@](C)(NC(=O)C(C)C)CCNC(=O)[C@@H](Cc2cccc(F)c2)NC1=O` [Cpd. No. 56, N-((3R,6S,9S,12R)-6-ethyl-3-(3-fluorobenzyl)-9-(3-guanidinopropyl)-12-methyl-2,5,8,11-tetraoxo-1,4,7,10-tetraazacyclotetradecan-12-yl)isobutyramide] (Isobutyryl-[dαMeDab]R[Abu][dPhe(3-F)]; lactam 1-C) the IC50 was 1.29 µM.

`CC[C@@H]1NC(=O)[C@H](CCCNC2CCN(C)CC2)NC(=O)[C@](C)(NC(=O)C(C)C)CCNC(=O)[C@@H](c2ccccc2)NC1=O` [Cpd. No. 9, N-((3R,6S,9S,12R)-6-ethyl-12-methyl-9-(3-((1-methylpiperidin-4-yl)arnino)propyl)-2,5,8,11-tetraoxo-3-phenyl-1,4,7,10-tetraazacyclotetradecan-12-yl)isobutyramide] was tested, and the IC50 was > 10 µM.

With `CC[C@@H]1NC(=O)[C@H](CNC2CCN(C)CC2)NC(=O)[C@](C)(NC(=O)C(C)C)CCNC(=O)[C@@H](c2ccccc2)NC1=O` [Cpd. No. 7, N-((3R,6S,9S,12R)-6-ethyl-12-methyl-9-(((1-methylpiperidin-4-yl)amino)methyl)-2,5,8,11-tetraoxo-3-phenyl-1,4,7,10-tetraazacyclotetradecan-12-yl)isobutyramide] the IC50 was > 10 µM.

With `CC[C@@H]1NC(=O)[C@H](CCNc2ncc[nH]2)NC(=O)[C@](C)(NC(=O)C(C)C)CCNC(=O)[C@@H](c2ccccc2)NC1=O` [Cpd. No. 19, N-((3R,6S,9S,12R)-9-(2-((1H-imidazol-2-yl)amino)ethyl)-6-ethyl-12-methyl-2,5,8,11-tetraoxo-3-phenyl-1,4,7,10-tetraazacyclotetradecan-12-yl)isobutyramide] (Isobutyryl-[dαMeDab][Dab](Imidazol2yl)[Abu][dPhg]; lactam 1-C) the IC50 was > 10 µM.

`C=CC(=O)NCCCC[C@@H]1NC(=O)[C@](C)(NC(=O)C(C)C)CCNC(=O)[C@@H](c2ccccc2)NC(=O)[C@H](CC)NC1=O` [Cpd. No. 24, N-(4-((2S,5S,8R,13R)-5-ethyl-13-isobutyramido-13-methyl-3,6,9,14-tetraoxo-8-phenyl-1,4,7,10-tetraazacyclotetradecan-2-yl)butyl)acrylamide] (Isobutyryl-[dαMeDab]K(Acryloyl)[Abu][dPhg]; lactam 1-C) was tested, and the pIC50 was < 5.00.

Work on `CC[C@@H]1NC(=O)[C@H](CCCNC(=N)N)NC(=O)[C@](C)(NC(=O)C(C)C)CCNC(=O)[C@@H](C2CCCC2)NC1=O` [Cpd. No. 50, N-((3R,6S,9S,12R)-3-cyclopentyl-6-ethyl-9-(3-guanidinopropyl)-12-methyl-2,5,8,11-tetraoxo-1,4,7,10-tetraazacyclotetradecan-12-yl)isobutyramide] (Isobutyryl-[dαMeDab]R[Abu][dGly(cPent)]; lactam 1-C) yielded an IC50 of 1.19 µM.

With `CC[C@@H]1NC(=O)[C@H](CCCNC(=N)N[N+](=O)[O-])NC(=O)[C@](C)(NC(=O)C(C)C)CCNC(=O)[C@@H](CC2CCCCC2)NC1=O` [Cpd. No. 32, N-((3R,6S,9S,12R)-3-(cyclohexylmethyl)-6-ethyl-12-methyl-9-(3-(3-nitroguanidino)propyl)-2,5,8,11-tetraoxo-1,4,7,10-tetraazacyclotetradecan-12-yl)isobutyramide] (Isobutyryl-[dαMeDab][Arg(NO2)][Abu][dCha]; lactam 1-C) the pIC50 was < 5.00.

With `CC[C@@H]1NC(=O)[C@H](CCCNC(=N)NN)NC(=O)[C@](C)(NC(=O)C(C)C)CCNC(=O)[C@@H](CC2CCCCC2)NC1=O` [Cpd. No. 34, N-((3R,6S,9S,12R)-3-(cyclohexylmethyl)-6-ethyl-9-(3-(hydrazinecarboximidamido)propyl)-12-methyl-2,5,8,11-tetraoxo-1,4,7,10-tetraazacyclotetradecan-12-yl)isobutyramide] the IC50 was > 10 µM.

For `CC[C@@H]1NC(=O)[C@H](CCCN/C(=N/C)NC)NC(=O)[C@](C)(NC(=O)C(C)C)CCNC(=O)[C@@H](CC2CCCCC2)NC1=O` [Cpd. No. 31, N-((3R,6S,9S,12R)-3-(cyclohexylmethyl)-9-(3-((E)-2,3-dimethylguanidino)propyl)-6-ethyl-12-methyl-2,5,8,11-tetraoxo-1,4,7,10-tetraazacyclotetradecan-12-yl)isobutyramide] (Isobutyryl-[dαMeDab][Arg(Me2s)][Abu][dCha]; lactam 1-C), the IC50 was > 10 µM.

`CC[C@@H]1NC(=O)C(CCCc2ccccc2)NC(=O)[C@](C)(NC(=O)C(C)C)CCNC(=O)[C@@H](c2ccccc2)NC1=O` (stereo partly drawn) [Cpd. No. 14, N-((3R,6S,12R)-6-ethyl-12-methyl-2,5,8,11-tetraoxo-3-phenyl-9-(3-phenylpropyl)-1,4,7,10-tetraazacyclotetradecan-12-yl)isobutyramide] (Isobutyryl-[dαMeDab][ξhhPhe][Abu][dPhg]; lactam 1-C) was tested, and the IC50 was > 10 µM.

In the case of `CC[C@@H]1NC(=O)[C@H](CCCNC(=N)N)NC(=O)[C@](C)(NC(=O)C(C)C)CCNC(=O)[C@@](C)(c2ccccc2)NC1=O` [Cpd. No. 78, N-((3R,6S,9S,12R)-6-ethyl-9-(3-guanidinopropyl)-3,12-dimethyl-2,5,8,11-tetraoxo-3-phenyl-1,4,7,10-tetraazacyclotetradecan-12-yl)isobutyramide], the IC50 was > 10 µM.

For `CC[C@H](C)[C@@H]1NC(=O)[C@H](CCCNC(=N)N)NC(=O)[C@](C)(NC(=O)C(C)C)CCNC(=O)[C@@H](c2ccccc2)NC1=O` [Cpd. No. 90, N-((3R,6S,9S,12R)-6-((S)-sec-butyl)-9-(3-guanidinopropyl)-12-methyl-2,5,8,11-tetraoxo-3-phenyl-1,4,7,10-tetraazacyclotetradecan-12-yl)isobutyramide] (Isobutyryl-[dαMeDab]RI[dPhg]; lactam 1-C), the pIC50 was < 5.00.

For `CC[C@@H]1NC(=O)[C@H](CCCNC2=NCC(F)(F)CN2)NC(=O)[C@](C)(NC(=O)C(C)C)CCNC(=O)[C@@H](CC2CCCCC2)NC1=O` [Cpd. No. 95, N-((3R,6S,9S,12R)-3-(cyclohexylmethyl)-9-(3-((5,5-difluoro-1,4,5,6-tetrahydropyrimidin-2-yl)amino)propyl)-6-ethyl-12-methyl-2,5,8,11-tetraoxo-1,4,7,10-tetraazacyclotetradecan-12-yl)isobutyramide], the IC50 was > 10 µM.

For `CC[C@@H]1NC(=O)[C@H](CCCNC(N)NC)NC(=O)[C@](C)(NC(=O)C(C)C)CCNC(=O)[C@@H](CC2CCCCC2)NC1=O` (stereo partly drawn) [Cpd. No. 87, N-((3R,6S,9S,12R)-9-(3-((amino(methylamino)methyl)amino)propyl)-3-(cyclohexylmethyl)-6-ethyl-12-methyl-2,5,8,11-tetraoxo-1,4,7,10-tetraazacyclotetradecan-12-yl)isobutyramide], the IC50 was 0.46 µM.

Work on `CC[C@@H]1NC(=O)[C@H](CCCNC(=N)N)NC(=O)[C@](C)(NC(=O)C(C)C)CCNC(=O)[C@@H](c2ccccc2OC)NC1=O` [Cpd. No. 99, N-((3R,6S,9S,12R)-6-ethyl-9-(3-guanidinopropyl)-3-(2-methoxyphenyl)-12-methyl-2,5,8,11-tetraoxo-1,4,7,10-tetraazacyclotetradecan-12-yl)isobutyramide] (Isobutyryl-[dαMeDab]R[Abu][dPhg(2-OMe)]; lactam 1-C) yielded an IC50 of 1.6 µM.

In the case of `CC[C@@H]1NC(=O)C(CCc2ccccc2)NC(=O)[C@](C)(NC(=O)C(C)C)CCNC(=O)[C@@H](c2ccccc2)NC1=O` (stereo partly drawn) [Cpd. No. 13, N-((3R,6S,12R)-6-ethyl-12-methyl-2,5,8,11-tetraoxo-9-phenethyl-3-phenyl-1,4,7,10-tetraazacyclotetradecan-12-yl)isobutyramide] (Isobutyryl-[dαMeDab][ξhPhe][Abu][dPhg]; lactam 1-C), the IC50 was > 10 µM.

With `CC(C)C(=O)N[C@]1(C)CCNC(=O)[C@@H](c2ccccc2)NC(=O)C2(CCCC2)NC(=O)[C@H](CCCNC(=N)N)NC1=O` [Cpd. No. 86, N-((8S,11R,16R)-8-(3-guanidinopropyl)-11-methyl-7,10,15,18-tetraoxo-16-phenyl-6,9,14,17-tetraazaspiro[4.13]octadecan-11-yl)isobutyramide] (Isobutyryl-[dαMeDab]R[Ac5c][dPhg]; lactam 1-C) the IC50 was > 10 µM.

For `CC[C@@H]1NC(=O)[C@H](CCCNC(=N)N)NC(=O)[C@](C)(NC(=O)C(C)C)CCNC(=O)[C@@H](C)NC1=O` [Cpd. No. 48, N-((3R,6S,9S,12R)-6-ethyl-9-(3-guanidinopropyl)-3,12-dimethyl-2,5,8,11-tetraoxo-1,4,7,10-tetraazacyclotetradecan-12-yl)isobutyramide] (Isobutyryl-[dαMeDab]R[Abu][dA]; lactam 1-C), the pIC50 was 5.76.

In the case of `CC[C@@H]1NC(=O)[C@H](CCCNC(=N)NC(=N)N)NC(=O)[C@](C)(NC(=O)C(C)C)CCNC(=O)[C@@H](CC2CCCCC2)NC1=O` [Cpd. No. 35, N-((3R,6S,9S,12R)-9-(3-(3-carbamimidoylguanidino)propyl)-3-(cyclohexylmethyl)-6-ethyl-12-methyl-2,5,8,11-tetraoxo-1,4,7,10-tetraazacyclotetradecan-12-yl)isobutyramide], the IC50 was > 10 µM.

For `CC[C@@H]1NC(=O)[C@H](CCNC2CCN(C)CC2)NC(=O)[C@](C)(NC(=O)C(C)C)CCNC(=O)[C@@H](c2ccccc2)NC1=O` [Cpd. No. 8, N-((3R,6S,9S,12R)-6-ethyl-12-methyl-9-(2-((1-methylpiperidin-4-yl)amino)ethyl)-2,5,8,11-tetraoxo-3-phenyl-1,4,7,10-tetraazacyclotetradecan-12-yl)isobutyramide], the IC50 was > 10 µM.

With `CC[C@@H]1NC(=O)[C@H](CCCNc2ncccn2)NC(=O)[C@](C)(NC(=O)C(C)C)CCNC(=O)[C@@H](c2ccccc2)NC1=O` [Cpd. No. 21, N-((3R,6S,12R)-6-ethyl-12-methyl-2,5,8,11-tetraoxo-3-phenyl-9-(3-(pyrimidin-2-ylamino)propyl)-1,4,7,10-tetraazacyclotetradecan-12-yl)isobutyramide] (Isobutyryl-[dαMeDab][Orn](2Pyrimidinyl)[Abu][dPhg]; lactam 1-C) the IC50 was > 10 µM.
